Series [1] concerns carrageenin edema of the rear paw of the rat. In words: Retardation of the Carrageenin Edema of the rear paw of the rat. Type of series: in vivo. Particulars: for ED25: po, rat, single administration, mean retardation of 25 % 3 and 5 hours after administration; for relative effect (Retardation of the Carrageenin Edema): relative to phenyl butazone (I) = 1.0. As for the experimental part: (§1) The antiinflammatory action of the standard preparation and the compounds of this invention, respectively, was determined
on the retarding inflammation at the carrageenin edema of the rear paw of the rat [Winter et al. Proc. Soc. exp. Biol. Med. 111 (1962) 544], wherein in table 2 those doses are shown which cause a mean retardation of 25 % 3 and 5 hours after single administration of the substance to be tested;
Background: In the carrageenan paw model, swelling and tenderness develop within hours.

Series [2] concerns ultraviolet erythema of the skin on the back of the guinea pig. As to the kind of experiment: Retardation of the UV-Erythema (skin on the back of the guinea pig). Particulars: for ED25: Cavia porcellus, light or radiation study, po, guinea pig, retardation of 25 % 5 hours after irradiation; for relative effect (Retardation of the UV-Erythema): relative to phenyl butazone (I) = 1,0. Type of series: in vivo. As for the experimental part: as §1
on the retardation at the ultraviolet erythema of the skin on the back of the guinea pig [Winder et al. Arch. int. Pharmacodyn. 116 (1958) 261], wherein in table 1 those doses are shown which cause a retardation of 25 % 5 hours after irradiation;

Series [3] concerns granulation tissue formation (cotton granuloma) in rats. As to the kind of experiment: Retardation of the granulation tissue formation (cotton granuloma, chronic inflammation model). Type of series: in vivo, rat. Particulars: for ED20: po, 168 h, 7 × p.o., rats, 20% inhibition, cotton granuloma; for relative effect (Retardation of the granulation tissue formation): relative to phenyl butazone (I) = 1.0. As for the experimental part: as §1
on a chronic inflammation model (cotton granuloma) wherein the influence of the compounds on the granulation tissue formation after subcutaneous implantation of cotton plugs in rats was studied after daily administration on 7 following days in taking pattern from the method described by Winter et al. [J. Pharmacol. exp. Therap.

A further series concerns rats. To be noted: 7 × p.o., 5 % of animals died within 10 days.
The nature of series [4]: in vivo. Particulars: rat, po.
Series [5] is described as follows: in vivo. Particulars: mouse, po.

Turning to `CCCCC1C(=O)N(c2ccccc2)N(c2ccccc2)C1=O` [I, phenyl butazone, reference compound], in series [1], the ED25 turned out to be 10 mg/kg and the “relative effect (Retardation of the Carrageenin Edema)” value amounted to 1.0. In series [2], the ED25 came to 1 mg/kg and the “relative effect (Retardation of the UV-Erythema)” value is recorded as 1,0. For the same molecule, in series [3], the ED20 amounted to 100 mg/kg/day and the “relative effect (Retardation of the granulation tissue formation)” value is given as 1.0.

For the molecule `O=C(O)Cc1c(-c2ccc(Cl)cc2)nn(-c2ccccc2)c1Cl` [II, 5-chloro-3-p-chlorophenyl-1-phenyl-pyrazole-4-acetic acid], in series [1], the ED25 was 1.5 mg/kg and the “relative effect (Retardation of the Carrageenin Edema)” value is reported as 6.7. In addition, in series [2], the ED25 is 0.15 mg/kg and the “relative effect (Retardation of the UV-Erythema)” value is reported as 6.7. This molecule displayed an LD5 with rats of 18 mg/kg/die. Further, the selectivity ratio in the series “in vivo [4]” amounted to 6. Besides, in series [3], the ED20 is 3 mg/kg/day and the “relative effect (Retardation of the granulation tissue formation)” value stood at 33.3. Further, in “in vivo [5]”, the 50% lethal dose (LD50) – broadly, the dose at which mortality reaches 50% – at 240 h stood at 530 mg/kg and the selectivity ratio was 353.

As to `O=C(O)Cc1c(-c2ccccc2)nn(-c2ccccc2)c1Cl` [III, 5-chloro-1,3-diphenyl-pyrazole-4-acetic acid], in series [1], the ED25 amounted to 1 mg/kg and the “relative effect (Retardation of the Carrageenin Edema)” value came to 10.0. Also, in series [2], the ED25 came out at 0.25 mg/kg and the “relative effect (Retardation of the UV-Erythema)” value amounted to 4.0. In the series with rats, this molecule gave an LD5 of 100 mg/kg/die. Besides, the selectivity ratio in the series “in vivo [4]” was determined as 12.5. In series [3], the ED20 turned out to be 8 mg/kg/day and the “relative effect (Retardation of the granulation tissue formation)” value is 12.5. In addition, in the series “in vivo [5]”, the LD50 at 240 h came out at 1200 mg/kg and the selectivity ratio stood at 1200.

With `COc1ccc(-c2nn(-c3ccccc3)c(Cl)c2CC(=O)O)cc1` [IV, 5-chloro-3-p-methoxyphenyl-1-phenyl-pyrazole-4-acetic acid], in series [1], the ED25 is 12 mg/kg and the “relative effect (Retardation of the Carrageenin Edema)” value was 0.8. For the same molecule, in “in vivo [5]”, the median lethal dose (LD50) at 240 h came to 1100 mg/kg and the selectivity ratio is 91.7.

For the origin of these results see US4042702A, “Halogen pyrazole derivatives, a method for producing these halogen pyrazole derivatives, medicaments containing and methods of using them” (Byk Gulden Lomberg Chemische Fabrik GmbH, priority 1973, dated 1977).
